Measurements taken from patent US20030104507A1, “Method for detection of ATP” (priority 2001, published 2003).

Test system: ATPase activity endogenous to L929 cell lysate
Test: Detergent inhibition of ATPase endogenous to L929 cell lysate (ATP remaining by luciferase luminescence, 22° C.)
Type: biochemical
Set-up: key to Relative ATPase Activity, slope det/slope lysate: slope with detergent / slope without; ≥1.0 = 100% activity, 0.5 = 50%
Details: for concentrations which resulted in a 25% or greater decrease in the relative ATPase activity: compared to reactions in the absence of detergent
Procedure, shortened: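 L929 lysate (1.5×10^5 cells/ml, four freeze–thaw cycles) held with detergent at final 1.0, 0.5, 0.1 or 0.05% at 22° C; remaining ATP read over time with luciferase-luciferin reagent (100 μM luciferin, 10 mM MgSO4, pH 7.5). Relative ATPase activity = slope of log % ATP remaining vs time with detergent ÷ slope for lysate-only control.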

[1] = Example 2, 0.02% detergent, 5 min
[2] = Example 2, 0.02% detergent, 75 min
[3] = Example 2, 0.02% detergent, 169 min
[4] = Example 2, 0.02% detergent, 222 min
[5] = Example 2, 0.02% detergent, 260 min
[6] = Example 2, 0.002% detergent, 5 min
[7] = Example 2, 0.002% detergent, 75 min
[8] = Example 2, 0.002% detergent, 169 min
[9] = Example 2, 0.002% detergent, 222 min
[10] = Example 2, 0.002% detergent, 260 min
[11] = Example 2, 0.01% detergent, 5 min
[12] = Example 2, 0.01% detergent, 75 min
[13] = Example 2, 0.01% detergent, 169 min
[14] = Example 2, 0.01% detergent, 222 min
[15] = Example 2, 0.01% detergent, 260 min

## CCCCCCCCCCCC[N+](C)(C)CCCS(=O)(=O)[O-] [Sulfobetaine 3-10, N-Dodecyl-N,N-dimethyl-3-ammonio-1-propanesulfonate]
0.02 percent detergent
  Relative ATPase Activity, slope det/slope lysate: 1.009
  Slope (log percent ATP remaining vs time in minutes): −0.0064
0.05% detergent, 5 min
  Average Relative Light Unit Values: 6247.31 rlu
  Percent ATP Remaining: 100%
0.05% detergent, 75 min
  Average Relative Light Unit Values: 2270.13 rlu
  Percent ATP Remaining: 36.3%
0.05% detergent, 169 min
  Average Relative Light Unit Values: 1053.56 rlu
  Percent ATP Remaining: 16.9%
0.05% detergent, 222 min
  Average Relative Light Unit Values: 465.03 rlu
  Percent ATP Remaining: 7.4%
0.05% detergent, 260 min
  Average Relative Light Unit Values: 233.19 rlu
  Percent ATP Remaining: 3.7%
0.05 percent detergent
  Relative ATPase Activity, slope det/slope lysate: 1.077
  Slope (log percent ATP remaining vs time in minutes): −0.0057
0.1% detergent, 5 min
  Average Relative Light Unit Values: 6506.61 rlu
  Percent ATP Remaining: 100%
0.1% detergent, 75 min
  Average Relative Light Unit Values: 2367.27 rlu
  Percent ATP Remaining: 36.4%
0.1% detergent, 169 min
  Average Relative Light Unit Values: 1100.37 rlu
  Percent ATP Remaining: 16.9%
0.1% detergent, 222 min
  Average Relative Light Unit Values: 446.29 rlu
  Percent ATP Remaining: 6.9%
0.1% detergent, 260 min
  Average Relative Light Unit Values: 222.22 rlu
  Percent ATP Remaining: 3.4%
0.10 percent detergent
  Relative ATPase Activity, slope det/slope lysate: 1.109
  Slope (log percent ATP remaining vs time in minutes): −0.0058
0.5% detergent, 5 min
  Average Relative Light Unit Values: 6565.98 rlu
  Percent ATP Remaining: 100%
0.5% detergent, 75 min
  Average Relative Light Unit Values: 2405.95 rlu
  Percent ATP Remaining: 36.6%
0.5% detergent, 169 min
  Average Relative Light Unit Values: 1211.13 rlu
  Percent ATP Remaining: 18.4%
0.5% detergent, 222 min
  Average Relative Light Unit Values: 609.75 rlu
  Percent ATP Remaining: 9.3%
0.5% detergent, 260 min
  Average Relative Light Unit Values: 391.64 rlu
  Percent ATP Remaining: 6.0%
0.50 percent detergent
  Relative ATPase Activity, slope det/slope lysate: 0.921
  Slope (log percent ATP remaining vs time in minutes): −0.0049
1.0% detergent, 5 min
  Average Relative Light Unit Values: 7861.36 rlu
  Percent ATP Remaining: 100%
1.0% detergent, 75 min
  Average Relative Light Unit Values: 5703.51 rlu
  Percent ATP Remaining: 72.6%
1.0% detergent, 169 min
  Average Relative Light Unit Values: 4318.46 rlu
  Percent ATP Remaining: 54.9%
1.0% detergent, 222 min
  Average Relative Light Unit Values: 3075.12 rlu
  Percent ATP Remaining: 39.1%
1.0% detergent, 260 min
  Average Relative Light Unit Values: 2193.02 rlu
  Percent ATP Remaining: 27.9%
1.00 percent detergent
  Relative ATPase Activity, slope det/slope lysate: 0.417
  Slope (log percent ATP remaining vs time in minutes): −0.0022
[1]
  Average Relative Light Unit Values: 6120.5 rlu
  Percent ATP Remaining: 100.00%
[2]
  Average Relative Light Unit Values: 1622.61 rlu
  Percent ATP Remaining: 26.51%
[3]
  Average Relative Light Unit Values: 291.09 rlu
  Percent ATP Remaining: 4.76%
[4]
  Average Relative Light Unit Values: 245.55 rlu
  Percent ATP Remaining: 4.01%
[5]
  Average Relative Light Unit Values: 136.43 rlu
  Percent ATP Remaining: 2.23%
  concentrations which resulted in a 25% or greater decrease in the relative ATPase activity: ≥ 1%

## CCCCCCCCCCCC[N+](C)(C)Cc1ccccc1.[Br-] [BDDABr, Benzyldimethyldodecylammonium bromide]
0.02 percent detergent
  Relative ATPase Activity, slope det/slope lysate: 0.623
  Slope (log percent ATP remaining vs time in minutes): −0.0039
0.05% detergent, 5 min
  Average Relative Light Unit Values: 7077.46 rlu
  Percent ATP Remaining: 100%
0.05% detergent, 75 min
  Average Relative Light Unit Values: 4539.97 rlu
  Percent ATP Remaining: 64.1%
0.05% detergent, 169 min
  Average Relative Light Unit Values: 2465.57 rlu
  Percent ATP Remaining: 34.8%
0.05% detergent, 222 min
  Average Relative Light Unit Values: 1680.16 rlu
  Percent ATP Remaining: 23.7%
0.05% detergent, 260 min
  Average Relative Light Unit Values: 1233.82 rlu
  Percent ATP Remaining: 17.4%
0.05 percent detergent
  Relative ATPase Activity, slope det/slope lysate: 0.528
  Slope (log percent ATP remaining vs time in minutes): −0.0030
0.1% detergent, 5 min
  Average Relative Light Unit Values: 7069.08 rlu
  Percent ATP Remaining: 100%
0.1% detergent, 75 min
  Average Relative Light Unit Values: 5136.92 rlu
  Percent ATP Remaining: 72.7%
0.1% detergent, 169 min
  Average Relative Light Unit Values: 3260.59 rlu
  Percent ATP Remaining: 46.1%
0.1% detergent, 222 min
  Average Relative Light Unit Values: 2366.49 rlu
  Percent ATP Remaining: 33.5%
0.1% detergent, 260 min
  Average Relative Light Unit Values: 1767.58 rlu
  Percent ATP Remaining: 25.0%
0.10 percent detergent
  Relative ATPase Activity, slope det/slope lysate: 0.414
  Slope (log percent ATP remaining vs time in minutes): −0.0023
0.5% detergent, 5 min
  Average Relative Light Unit Values: 122.47 rlu
  Percent ATP Remaining: 100%
0.5% detergent, 75 min
  Average Relative Light Unit Values: 107.39 rlu
  Percent ATP Remaining: 87.7%
0.5% detergent, 169 min
  Average Relative Light Unit Values: 93.92 rlu
  Percent ATP Remaining: 76.2%
0.5% detergent, 222 min
  Average Relative Light Unit Values: 96.68 rlu
  Percent ATP Remaining: 78.9%
0.5% detergent, 260 min
  Average Relative Light Unit Values: 101.11 rlu
  Percent ATP Remaining: 82.6%
0.50 percent detergent
  Relative ATPase Activity, slope det/slope lysate: 0.064
  Slope (log percent ATP remaining vs time in minutes): −0.0004
1.0% detergent, 5 min
  Average Relative Light Unit Values: 0.49 rlu
1.0% detergent, 75 min
  Average Relative Light Unit Values: 0.51 rlu
1.0% detergent, 169 min
  Average Relative Light Unit Values: 0.44 rlu
1.0% detergent, 222 min
  Average Relative Light Unit Values: 0.42 rlu
1.0% detergent, 260 min
  Average Relative Light Unit Values: 0.43 rlu
[1]
  Average Relative Light Unit Values: 6215.32 rlu
  Percent ATP Remaining: 100.00%
[2]
  Average Relative Light Unit Values: 2686.49 rlu
  Percent ATP Remaining: 48.53%
[3]
  Average Relative Light Unit Values: 962.85 rlu
  Percent ATP Remaining: 21.51%
[4]
  Average Relative Light Unit Values: 604.47 rlu
  Percent ATP Remaining: 13.18%
[5]
  Average Relative Light Unit Values: 429.86 rlu
  Percent ATP Remaining: 9.74%

## CCCCCCCCCCCCOS(=O)(=O)[O-].[Na+] [SDS, Sodium dodecyl sulfate]
0.002 percent detergent
  Relative ATPase Activity, slope det/slope lysate: 1.010
  Slope (log percent ATP remaining vs time in minutes): −0.0064
0.01 percent detergent
  Relative ATPase Activity, slope det/slope lysate: 0.702
  Slope (log percent ATP remaining vs time in minutes): −0.00385
0.05% detergent, 5 min
  Average Relative Light Unit Values: 1181.17 rlu
  Percent ATP Remaining: 100%
0.05% detergent, 75 min
  Average Relative Light Unit Values: 1060.03 rlu
  Percent ATP Remaining: 89.7%
0.05% detergent, 169 min
  Average Relative Light Unit Values: 949.7 rlu
  Percent ATP Remaining: 80.4%
0.05% detergent, 222 min
  Average Relative Light Unit Values: 921.86 rlu
  Percent ATP Remaining: 78.0%
0.05% detergent, 260 min
  Average Relative Light Unit Values: 803.0 rlu
  Percent ATP Remaining: 68.0%
0.05 percent detergent
  Relative ATPase Activity, slope det/slope lysate: 0.105
  Slope (log percent ATP remaining vs time in minutes): −0.0006
0.1% detergent, 5 min
  Average Relative Light Unit Values: 0.31 rlu
0.1% detergent, 75 min
  Average Relative Light Unit Values: 0.18 rlu
0.1% detergent, 169 min
  Average Relative Light Unit Values: 0.21 rlu
0.1% detergent, 222 min
  Average Relative Light Unit Values: 0.26 rlu
0.1% detergent, 260 min
  Average Relative Light Unit Values: 0.34 rlu
0.5% detergent, 5 min
  Average Relative Light Unit Values: 0.00 rlu
0.5% detergent, 75 min
  Average Relative Light Unit Values: 0.00 rlu
0.5% detergent, 169 min
  Average Relative Light Unit Values: 0.02 rlu
0.5% detergent, 222 min
  Average Relative Light Unit Values: 0.00 rlu
0.5% detergent, 260 min
  Average Relative Light Unit Values: 0.00 rlu
1.0% detergent, 5 min
  Average Relative Light Unit Values: 0.01 rlu
1.0% detergent, 75 min
  Average Relative Light Unit Values: 0.00 rlu
1.0% detergent, 169 min
  Average Relative Light Unit Values: 0.01 rlu
1.0% detergent, 222 min
  Average Relative Light Unit Values: 0.00 rlu
1.0% detergent, 260 min
  Average Relative Light Unit Values: 0.01 rlu
[6]
  Average Relative Light Unit Values: 5773.39 rlu
  Percent ATP Remaining: 100.00%
[7]
  Average Relative Light Unit Values: 1574.34 rlu
  Percent ATP Remaining: 27.27%
[8]
  Average Relative Light Unit Values: 278.67 rlu
  Percent ATP Remaining: 4.83%
[9]
  Average Relative Light Unit Values: 236.28 rlu
  Percent ATP Remaining: 4.09%
[10]
  Average Relative Light Unit Values: 128.58 rlu
  Percent ATP Remaining: 2.23%
[11]
  Average Relative Light Unit Values: 13116.20 rlu
  Percent ATP Remaining: 100.00%
[12]
  Average Relative Light Unit Values: 10753.03 rlu
  Percent ATP Remaining: 48.62%
[13]
  Average Relative Light Unit Values: 12051.63 rlu
  Percent ATP Remaining: 25.80%
[14]
  Average Relative Light Unit Values: 11822.03 rlu
  Percent ATP Remaining: 14.20%
[15]
  Average Relative Light Unit Values: 11900.73 rlu
  Percent ATP Remaining: 8.79%
SDS 0.05%, deoxycholate 0.5% and 0.1%
  times more ATP present in the sample after four hours when the detergent was present than when it was absent: about three to about twenty
  concentrations which resulted in a 25% or greater decrease in the relative ATPase activity: ≥ 0.01%
